Marks after values point to notes of the source that are not given here.
How the values were obtained:
Assay type in all cases: cell-based, Saccharomyces cerevisiae
S. cerevisiae JAY 270 [1] = test: Growth test in liquid YNB medium, low/high nitrogen, serum bottles; conditions: 40, 200, 1000 mg/L; low and high nitrogen media
Protocol: A second set of tests was performed in a defined liquid medium, Yeast Nitrogen Base with Glucose (YNB), containing (NH4)2SO4 at either low (1 mM) or high (10 mM) nitrogen content. […] All serum bottles were incubated in a shaker at 30° C. and 150 RPM. Each treatment was performed in biological duplicate. Samples were collected at 0, 5, and 10 hours.

S. cerevisiae JAY 270 [2] = test: Serum-bottle cultivation in YPD: biomass, glycerol, ethanol yields
Protocol: Procedure: Cultivations in serum bottles were used to determine the effect of the best-performing screened chemicals on the ethanol yield. S. cerevisiae JAY 270 was pre-cultured in 100 mL of YPD medium in 200-mL serum bottles overnight in a shaker at 30° C. and 200 rpm. The precultured yeast cells were collected and washed twice as described above. The cell pellet was resuspended in about 10 mL of 0.8% (w/v) NaCl and the cell concentration was estimated as OD600. TyrOH, PheOH, and TrpOH were added to 30 mL of YPD medium in 100-mL serum bottles at 0.05% and 0.2% respectively. The same amount of DMSO was added to YPD medium to serve as the control for TrpOH and TyrOH treatments. The bottles were inoculated with the prepared yeast cells to obtain an initial cell concentration of OD600=0.2. The serum bottles were sealed and cultured in a shaker at 30° C. and 200 rpm for 24 h. Each condition had three biological replicates.
(§1) Analytical methods: Cell growth was evaluated by monitoring OD600 and cell dry mass concentration. For dry mass measurements, 1.0 mL of culture was transferred to a pre-dried and pre-weighed 2-mL centrifuge tube. The tubes were centrifuged for 10 min at 14000 rpm using a microcentrifuge, and then the cell pellets were dried in an oven for 3 days at 65° C. The cell dry mass was determined by subtracting the initial tube mass from the dried mass of tube with cells. The concentrations of glucose, ethanol, and glycerol were measured via HPLC (Shimadzu LC20A series) outfitted with a refractive index detector and using an Aminex HPX-87H (300×7.8 mm) organic acid column and Cation H+ guard cartridge (Bio Rad Laboratories, Hercules, CA). The column was maintained at 65° C. and the mobile phase was 5 mM sulfuric acid with a flow rate of 0.6 mL/min. Standard compound solutions were used to calibrate the HPLC. Each sample was analyzed three times by HPLC.

S. cerevisiae JAY 238 = test: Serum-bottle cultivation in YPD, different yeast strains; conditions: 0.2%
Protocol: as §1
(§2) Procedure: Seven yeast strains (S. cerevisiae ATCC 26603, S. cerevisiae JAY 238, S. cerevisiae JAY 240, S. cerevisiae JAY 241, S. paradoxus JAY 1502, S. kudriavzezii JAY 1503, and S. mikatae JAY 1504) were pre-cultured in 30 mL of YPD medium in 100 mL serum bottle overnight in a shaker at 30° C. and 200 rpm. The precultured yeast cells of each strains were collected and washed twice. Finally, the cell pellet was resuspended in about 10 mL 0.8% (w/v) NaCl and the OD600 measured. TyrOH, PheOH, and TrpOH were added to 30 mL of YPD medium in 100-mL serum bottles at 0.2% (w/v) respectively. The same amount of DMSO was added in YPD medium and served as control to the TrpOH and TyrOH treatments. The prepared yeast cells were added to obtain the initial cell concentration at OD600=0.2. The serum bottles were sealed and cultured in a shaker at 30° C. and 200 rpm for 24 h. There were three biological replicates for each treatment.

S. cerevisiae JAY 240 = test: as above; conditions: 0.2%
Protocol: as §1, §2

S. cerevisiae JAY 241 = test: as above; conditions: 0.2%
Protocol: as §1, §2

[3] = 0.05% (w/v), YPD, serum bottles
[4] = S. cerevisiae JAY 238, YPD (Table 9B)
[5] = S. cerevisiae JAY 240, YPD (Table 9B)
[6] = S. cerevisiae JAY 241, YPD (Table 9B)

OCCc1c[nH]c2ccccc12 [TrpOH, tryptophol]
Inhibitory effect on yeast cell growth in liquid YNB medium (S. cerevisiae JAY 270 [1]): strongest inhibitory effect | Biomass Yield (S. cerevisiae JAY 270 [2]; [3]): 0.078 + 0.001 g/g | Biomass yield % change vs. control (S. cerevisiae JAY 270 [2]; [3]): −22* % | EtOH yield (S. cerevisiae JAY 270 [2]; [3]): 0.41 ± 0.01 g/g | EtOH yield % change vs. control (S. cerevisiae JAY 270 [2]; [3]): 7.9* % | Glycerol yield (S. cerevisiae JAY 270 [2]; [3]): 0.027 ± 0.001 g/g | Glycerol yield % change vs. control (S. cerevisiae JAY 270 [2]; [3]): −20* % | Biomass yield vs. reference (S. cerevisiae JAY 270 [2]; 0.05%, YPD, serum bottles): −22.0% | Ethanol yield (S. cerevisiae JAY 270 [2]; 0.05%, YPD, serum bottles): 0.41 ± 0.01 g/g | Ethanol yield vs. reference (S. cerevisiae JAY 270 [2]; 0.05%, YPD, serum bottles): 7.9% | Glycerol yield (S. cerevisiae JAY 270 [2]; 0.05%, YPD, serum bottles): 0.027 ± 0.001 g/g | Glycerol yield vs. reference (S. cerevisiae JAY 270 [2]; 0.05%, YPD, serum bottles): −19.6% | OD600 (S. cerevisiae JAY 270 [2]; 0.05%, YPD, serum bottles): 3.01 | Effect on yeast cell growth (S. cerevisiae JAY 270 [2]; 0.2%): reduced yeast cell growth | Biomass Yield (S. cerevisiae JAY 270 [2]; 0.2% (w/v), YPD, serum bottles): 0.042 + 0.006 g/g | Biomass yield % change vs. control (S. cerevisiae JAY 270 [2]; 0.2% (w/v), YPD, serum bottles): −58* % | EtOH yield (S. cerevisiae JAY 270 [2]; 0.2% (w/v), YPD, serum bottles): 0.41 ± 0.01 g/g | EtOH yield % change vs. control (S. cerevisiae JAY 270 [2]; 0.2% (w/v), YPD, serum bottles): 10* % | Glycerol yield (S. cerevisiae JAY 270 [2]; 0.2% (w/v), YPD, serum bottles): 0.027 ± 0.009 g/g | Glycerol yield % change vs. control (S. cerevisiae JAY 270 [2]; 0.2% (w/v), YPD, serum bottles): −22* % | Biomass yield vs. reference (S. cerevisiae JAY 270 [2]; 0.2%, YPD, serum bottles): −58.2% | Effect on ethanol yield (S. cerevisiae JAY 270 [2]; 0.2%, YPD, serum bottles): increased the ethanol yield significantly | Ethanol yield (S. cerevisiae JAY 270 [2]; 0.2%, YPD, serum bottles): 0.41 ± 0.01 g/g | Ethanol yield vs. reference (S. cerevisiae JAY 270 [2]; 0.2%, YPD, serum bottles): 10.3% | Glycerol yield (S. cerevisiae JAY 270 [2]; 0.2%, YPD, serum bottles): 0.027 ± 0.009 g/g | Glycerol yield vs. reference (S. cerevisiae JAY 270 [2]; 0.2%, YPD, serum bottles): −21.9% | OD600 (S. cerevisiae JAY 270 [2]; 0.2%, YPD, serum bottles): 1.52 | Biomass Yield (S. cerevisiae JAY 238; S. cerevisiae JAY 238): 0.060 ± 0.000 g/g | Biomass yield % change vs. control (S. cerevisiae JAY 238; S. cerevisiae JAY 238): −12* % | EtOH yield (S. cerevisiae JAY 238; S. cerevisiae JAY 238): 0.482 ± 0.017 g/g | Glycerol yield (S. cerevisiae JAY 238; S. cerevisiae JAY 238): 0.023 ± 0.002 g/g | Glycerol yield % change vs. control (S. cerevisiae JAY 238; S. cerevisiae JAY 238): −49* % | Glycerol yield decrease from control (S. cerevisiae JAY 238; S. cerevisiae JAY 238): 42% | DCW (S. cerevisiae JAY 238; S. cerevisiae JAY 238, YPD): 1.30 mg | DCW Δ vs. ref (S. cerevisiae JAY 238; S. cerevisiae JAY 238, YPD): 46.4% | OD600 (S. cerevisiae JAY 238; S. cerevisiae JAY 238, YPD): 0.39 | OD600 Δ vs. ref (S. cerevisiae JAY 238; S. cerevisiae JAY 238, YPD): 16.7% | Biomass Yield (S. cerevisiae JAY 238; [4]): 0.060 + 0.000 g/g | Biomass yield Δ vs. ref (S. cerevisiae JAY 238; [4]): −11.8% | Ethanol yield (S. cerevisiae JAY 238; [4]): 0.482 ± 0.017 g/g | Ethanol yield Δ vs. ref (S. cerevisiae JAY 238; [4]): 14.7% | Glycerol yield (S. cerevisiae JAY 238; [4]): 0.020 ± 0.002 g/g | Glycerol yield Δ vs. ref (S. cerevisiae JAY 238; [4]): −48.90% | Biomass Yield (S. cerevisiae JAY 240; S. cerevisiae JAY 240): 0.055 ± 0.006 g/g | Biomass yield % change vs. control (S. cerevisiae JAY 240; S. cerevisiae JAY 240): −24* % | EtOH yield (S. cerevisiae JAY 240; S. cerevisiae JAY 240): 0.464 ± 0.053 g/g | Glycerol yield (S. cerevisiae JAY 240; S. cerevisiae JAY 240): 0.035 ± 0.000 g/g | Glycerol yield % change vs. control (S. cerevisiae JAY 240; S. cerevisiae JAY 240): −12* % | DCW (S. cerevisiae JAY 240; S. cerevisiae JAY 240, YPD): 1.55 mg | DCW Δ vs. ref (S. cerevisiae JAY 240; S. cerevisiae JAY 240, YPD): 50.8% | OD600 (S. cerevisiae JAY 240; S. cerevisiae JAY 240, YPD): 1.12 | OD600 Δ vs. ref (S. cerevisiae JAY 240; S. cerevisiae JAY 240, YPD): 45.0% | Biomass Yield (S. cerevisiae JAY 240; [5]): 0.055 + 0.006 g/g | Biomass yield Δ vs. ref (S. cerevisiae JAY 240; [5]): −23.5% | Ethanol yield (S. cerevisiae JAY 240; [5]): 0.464 ± 0.053 g/g | Ethanol yield Δ vs. ref (S. cerevisiae JAY 240; [5]): 14.5% | Glycerol yield (S. cerevisiae JAY 240; [5]): 0.035 ± 0.000 g/g | Glycerol yield Δ vs. ref (S. cerevisiae JAY 240; [5]): −11.63% | Biomass Yield (S. cerevisiae JAY 241; S. cerevisiae JAY 241): 0.063 ± 0.004 g/g | Biomass yield % change vs. control (S. cerevisiae JAY 241; S. cerevisiae JAY 241): +8.6% | EtOH yield (S. cerevisiae JAY 241; S. cerevisiae JAY 241): 0.435 ± 0.035 g/g | Glycerol yield (S. cerevisiae JAY 241; S. cerevisiae JAY 241): 0.041 ± 0.004 g/g | Glycerol yield % change vs. control (S. cerevisiae JAY 241; S. cerevisiae JAY 241): −26* % | DCW Δ vs. ref (S. cerevisiae JAY 241; S. cerevisiae JAY 241, YPD): 58.5% | OD600 (S. cerevisiae JAY 241; S. cerevisiae JAY 241, YPD): 1.00 | OD600 Δ vs. ref (S. cerevisiae JAY 241; S. cerevisiae JAY 241, YPD): 50.1% | Biomass Yield (S. cerevisiae JAY 241; [6]): 0.063 + 0.004 g/g | Biomass yield Δ vs. ref (S. cerevisiae JAY 241; [6]): 8.6% | Ethanol yield (S. cerevisiae JAY 241; [6]): 0.435 ± 0.035 g/g | Ethanol yield Δ vs. ref (S. cerevisiae JAY 241; [6]): 13.8% | Glycerol yield (S. cerevisiae JAY 241; [6]): 0.041 ± 0.004 g/g | Glycerol yield Δ vs. ref (S. cerevisiae JAY 241; [6]): −25.72%

— patent US11827917B1, “Methods for the conversion of fermentable sugars to ethanol” (Colorado State University Research Foundation, priority 2020, dated 2023)
